Source: patent US20060241019A1, “Long lasting insulin derivatives and methods thereof” (priority 2003, published 2006)

System: Epididymal fat cells from Wistar rats
Assay: Glucose uptake in epididymal fat cells
Format: cell-based
Details: D-[3-3H]Glucose incorporation, rat epididymal fat cells, 2 hour incubation
Description: In addition, glucose uptake in an other source of adipocytes was used to evaluate the in vitro activity. […] The tissue (0.03 g/ml) is degraded by collagenase in modified HEPES solution pH 7.4 at 37° C. Test compound and/or vehicle is incubated with 500 μl aliquots in modified HEPES buffer pH 7.4 and D-[3-3H]Glucose (2.5 μCi/ml) is then added for 2 hour incubation. Test compound-induced the increase of glucose incorporation by more than 50 percent or more (≧50%) relative to the control 2 nM insulin response, indicates possible insulin receptor agonist activity. […] Compounds are screened at 10, 1, 0.1, 0.01 and 0.001 μM.

EC50: 15.4 nM
Substance: (Phe B1)-MPA-(AEES)2-Insulin [Example VI]
